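Method: 48-hour compound exposure of cells in 96-well plates, five concentrations, linear interpolation of endpoints. The concentration for full growth arrest is given as TGI.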
Legend:
Test in all cases: NCI anticancer screen, dose series, 48 h
SF-539 CNS = tested on: SF-539 CNS
K-562 leukemia = tested on: K-562 leukemia
SK-MEL-5 melanoma = tested on: SK-MEL-5 melanoma
HOP-92 NSCLC = tested on: HOP-92 NSCLC
NCI-H23 lung = tested on: NCI-H23 lung
HT29 colon = tested on: HT29 colon
TK-10 renal = tested on: TK-10 renal
MALME-3M melanoma = tested on: MALME-3M melanoma
OVCAR-3 ovarian = tested on: OVCAR-3 ovarian
U251 CNS = tested on: U251 CNS
EKVX NSCLC = tested on: EKVX NSCLC
XF 498 CNS = tested on: XF 498 CNS
CAKI-1 renal = tested on: CAKI-1 renal
OVCAR-5 ovarian = tested on: OVCAR-5 ovarian
SK-MEL-2 melanoma = tested on: SK-MEL-2 melanoma
SF-295 CNS = tested on: SF-295 CNS
OVCAR-8 ovarian = tested on: OVCAR-8 ovarian
RXF 393 renal = tested on: RXF 393 renal
SF-268 CNS = tested on: SF-268 CNS
HL-60(TB) leukemia = tested on: HL-60(TB) leukemia
NCI-H460 lung = tested on: NCI-H460 lung
UO-31 renal = tested on: UO-31 renal
IGROV1 ovarian = tested on: IGROV1 ovarian
M19-MEL melanoma = tested on: M19-MEL melanoma
HOP-18 NSCLC = tested on: HOP-18 NSCLC
DMS 273 small cell lung = tested on: DMS 273 small cell lung
KM12 colon = tested on: KM12 colon
SNB-19 CNS = tested on: SNB-19 CNS
HCT-15 colon = tested on: HCT-15 colon
LXFL 529 NSCLC = tested on: LXFL 529 NSCLC
CCRF-CEM leukemia = tested on: CCRF-CEM leukemia
M14 melanoma = tested on: M14 melanoma
LOX IMVI melanoma = tested on: LOX IMVI melanoma
KM20L2 colon = tested on: KM20L2 colon
SN12C renal = tested on: SN12C renal
UACC-257 melanoma = tested on: UACC-257 melanoma
A549 NSCLC = tested on: A549 NSCLC
OVCAR-4 ovarian = tested on: OVCAR-4 ovarian
HCT-116 colon = tested on: HCT-116 colon
DLD-1 colon = tested on: DLD-1 colon
RPMI-8226 leukemia = tested on: RPMI-8226 leukemia
ACHN renal = tested on: ACHN renal
A498 renal = tested on: A498 renal
COLO 205 colon = tested on: COLO 205 colon
SNB-75 CNS = tested on: SNB-75 CNS
SNB-78 CNS = tested on: SNB-78 CNS
HOP-62 NSCLC = tested on: HOP-62 NSCLC
NCI-H226 lung = tested on: NCI-H226 lung
SK-OV-3 ovarian = tested on: SK-OV-3 ovarian
SW-620 colon = tested on: SW-620 colon
786-0 renal = tested on: 786-0 renal
MOLT-4 leukemia = tested on: MOLT-4 leukemia
SK-MEL-28 melanoma = tested on: SK-MEL-28 melanoma
NCI-H522 lung = tested on: NCI-H522 lung
HCC-2998 colon = tested on: HCC-2998 colon

`O=C1Cc2c([nH]c3ccccc23)-c2ccccc2N1` was tested, and the TGI (SF-539 CNS) was 55.2 µM, the TGI (K-562 leukemia) was greater than 100 µM and the TGI (SK-MEL-5 melanoma) was greater than 100 µM. It also gave a TGI (HOP-92 NSCLC) greater than 100 µM, a TGI (NCI-H23 lung) of 61.1 µM and a TGI (HT29 colon) of 69 µM. For the same compound, the TGI (TK-10 renal) was greater than 100 µM, the TGI (MALME-3M melanoma) was greater than 100 µM and the TGI (OVCAR-3 ovarian) was 68.2 µM. It also gave a TGI (U251 CNS) greater than 100 µM, a TGI (EKVX NSCLC) greater than 100 µM and a TGI (XF 498 CNS) of 91.8 µM. It also gave a TGI (CAKI-1 renal) greater than 100 µM, a TGI (OVCAR-5 ovarian) of 67.4 µM and a TGI (SK-MEL-2 melanoma) greater than 100 µM. It also gave a TGI (SF-295 CNS) greater than 100 µM, a TGI (OVCAR-8 ovarian) greater than 100 µM and a TGI (RXF 393 renal) of 40.7 µM. The TGI (SF-268 CNS) was greater than 100 µM, the TGI (HL-60(TB) leukemia) was greater than 100 µM and the TGI (NCI-H460 lung) was greater than 100 µM. It also gave a TGI (UO-31 renal) greater than 100 µM, a TGI (IGROV1 ovarian) of 70.8 µM and a TGI (M19-MEL melanoma) greater than 100 µM. For the same compound, the TGI (HOP-18 NSCLC) was greater than 100 µM, the TGI (DMS 273 small cell lung) was greater than 100 µM and the TGI (KM12 colon) was 45.2 µM. For the same compound, the TGI (SNB-19 CNS) was greater than 100 µM, the TGI (HCT-15 colon) was greater than 100 µM and the TGI (LXFL 529 NSCLC) was greater than 100 µM. It also gave a TGI (CCRF-CEM leukemia) greater than 100 µM, a TGI (M14 melanoma) greater than 100 µM and a TGI (LOX IMVI melanoma) of 37.7 µM. For the same compound, the TGI (KM20L2 colon) was 50.7 µM, the TGI (SN12C renal) was greater than 100 µM and the TGI (UACC-257 melanoma) was greater than 100 µM. For the same compound, the TGI (A549 NSCLC) was greater than 100 µM, the TGI (OVCAR-4 ovarian) was greater than 100 µM and the TGI (HCT-116 colon) was 31.9 µM. The TGI (DLD-1 colon) was greater than 100 µM, the TGI (RPMI-8226 leukemia) was greater than 100 µM and the TGI (ACHN renal) was greater than 100 µM. It also gave a TGI (A498 renal) greater than 100 µM, a TGI (COLO 205 colon) of 45.9 µM and a TGI (SNB-75 CNS) greater than 100 µM. The TGI (SNB-78 CNS) was greater than 100 µM, the TGI (HOP-62 NSCLC) was 97.7 µM and the TGI (NCI-H226 lung) was greater than 100 µM. The TGI (SK-OV-3 ovarian) was greater than 100 µM, the TGI (SW-620 colon) was 66.7 µM and the TGI (786-0 renal) was greater than 100 µM. It also gave a TGI (MOLT-4 leukemia) of 94.3 µM, a TGI (SK-MEL-28 melanoma) greater than 100 µM and a TGI (NCI-H522 lung) of 62.6 µM. For the same compound, the TGI (HCC-2998 colon) was 41.2 µM.

From PubChem BioAssay (NCI)
